The NIST ThermoML archive (doi:10.1021/je2007549)

Experiments:
[1] = 101 kPa, Liquid; for electrical conductivity: Direct current cell with electrodes; for viscosity: Falling or rolling sphere viscometry; for mass density: Vibrating tube method
[2] = xn = mol fraction of the nth substance listed; settings: 101 kPa, Liquid; for electrical conductivity: Direct current cell with electrodes; for mass density: Vibrating tube method; for viscosity: n

CCCC[P+](CCCC)(CCCC)CCCN.C[C@H](N)C(=O)[O-] [(3-aminopropyl)tributylphosphonium L-alaninate]
[1]
Settings | electrical conductivity [S/m] | mass density [kg/m3] | viscosity [mPa·s]
298.15 K | 0.0141 | 986.75 | 804.88
303.15 K | 0.0209 | 983.72 | 561.4
313.15 K | 0.032 | 977.65 | 291.07
323.15 K | 0.0464 | 971.62 | 164.61
333.15 K | 0.0649 | 965.71 | 106.7
343.15 K | 0.0884 | 959.97 | 65.96

CC(C)C[C@H](N)C(=O)[O-].CCCC[P+](CCCC)(CCCC)CCCN [(3-aminopropyl)tributylphosphonium L-leucinate]
[1]
Settings | electrical conductivity [S/m] | mass density [kg/m3] | viscosity [mPa·s]
298.15 K | 0.008 | 971.86 | 1227.9
303.15 K | 0.0108 | 968.8 | 855.26
313.15 K | 0.0185 | 962.68 | 417.9
323.15 K | 0.0291 | 956.54 | 224.29
333.15 K | 0.0414 | 950.54 | 130.46
343.15 K | 0.0605 | 944.58 | 81.01

CC(C)[C@H](N)C(=O)[O-].CCCC[P+](CCCC)(CCCC)CCCN [(3-aminopropyl)tributylphosphonium L-valinate]
[1]
Settings | electrical conductivity [S/m] | mass density [kg/m3] | viscosity [mPa·s]
298.15 K | 0.00815 | 980.72 | 1015.5
303.15 K | 0.011 | 977.68 | 695.04
313.15 K | 0.0188 | 971.57 | 350.86
323.15 K | 0.0294 | 965.45 | 192.24
333.15 K | 0.0447 | 959.5 | 114.05
343.15 K | 0.065 | 953.54 | 72.45

CC(C)[C@H](N)C(=O)[O-].CCCC[P+](CCCC)(CCCC)CCCN [(3-aminopropyl)tributylphosphonium L-valinate] + O
[2]
Settings | electrical conductivity [S/m] | mass density [kg/m3] | viscosity [mPa·s]
298.15 K, x2 = 0 | 0.00815 | 980.72 | 1015.5
298.15 K, x2 = 0.25 | 0.0116 | 982.82 | 734.22
298.15 K, x2 = 0.5 | 0.0168 | 987.18 | 505.63
298.15 K, x2 = 0.75 | 0.0414 | 995.89 | 237.96
303.15 K, x2 = 0 | 0.011 | 977.68 | 695.04
303.15 K, x2 = 0.25 | 0.0158 | 979.76 | 508.12
303.15 K, x2 = 0.5 | 0.0237 | 984.04 | 335.23
303.15 K, x2 = 0.75 | 0.0547 | 992.65 | 168.93
313.15 K, x2 = 0 | 0.0188 | 971.57 | 350.86
313.15 K, x2 = 0.25 | 0.0253 | 973.59 | 259.52
313.15 K, x2 = 0.5 | 0.0401 | 977.71 | 184.22
313.15 K, x2 = 0.75 | 0.0853 | 986.16 | 92.15
323.15 K, x2 = 0 | 0.0294 | 965.45 | 192.24
323.15 K, x2 = 0.25 | 0.0392 | 967.39 | 145.61
323.15 K, x2 = 0.5 | 0.0635 | 971.55 | 102.76
323.15 K, x2 = 0.75 | 0.128 | 979.59 | 56.03
333.15 K, x2 = 0 | 0.0447 | 959.5 | 114.05
333.15 K, x2 = 0.25 | 0.0563 | 961.39 | 87.86
333.15 K, x2 = 0.5 | 0.093 | 965.34 | 65.77
333.15 K, x2 = 0.75 | 0.183 | 972.96 | 36.96
343.15 K, x2 = 0 | 0.065 | 953.54 | 72.45
343.15 K, x2 = 0.25 | 0.0858 | 955.37 | 56.87
343.15 K, x2 = 0.5 | 0.132 | 959.05 | 43.81
343.15 K, x2 = 0.75 | 0.258 | 966.29 | 24.58
